Measurements as given in US11274092B2, “Potassium channel inhibitors” (ACESION PHARMA ApS, priority 2016, dated 2022).

Target: T1, human SK3 channel (hKCa2.3) (Homo sapiens, UniProt Q9UGI6)
T1 construct: expressed in transfected cells
Assay: Automated whole cell patch-clamp (QPatch 16 HT), inhibition of SK3 current
Format: cell-based
Details: HEK-293 cells stably expressing hKCa2.3; symmetrical K+ solutions, free calcium 400 nM; effects normalized to N-methyl bicuculline
Procedure: Automated whole cell patch-clamp recordings were performed using a QPatch 16 HT system and single-hole Qplates (Biolin Scientific, Sophion, Denmark) on HEK-293 cells stably expressing the human SK3 channel (hKCa2.3). Cells were cultured and prepared for experiments using normal cell culturing procedures. A total of 4-5 million cells were used per experiment. The Qpatch automatically generates giga sealing, whole-cell formation, compound application and recording of current. hKCa2.3 currents were recorded in symmetrical K^+ solutions, with an intracellular solution consisting of in mM: KCl 108; KOH/EGTA (ethylene glycol-bis(2-aminoethylether)-N,N,N′,N′-tetraacetic acid) 31.25/10; CaCl2) 8.1; MgCl2 1.2; HEPES (2-[4-(2-hydroxyethyl)piperazin-1-yl]ethanesulfonic acid) 10; KOH 15, pH adjusted to pH=7.2 with HCl. The free calcium concentration was calculated to 400 nM. The extracellular solution consisted of in mM: KCl 150; CaCl2) 0.1; MgCl2 3; HEPES 10; Glucose 10, pH=7.4 with KOH. The cells were held at 0 mV and hKCa2.3 currents were elicited by a linear voltage ramp from […] (200 ms in duration) applied every 5th second. The compound application protocol consisted of 12 recording periods lasting from 50-200 s: 1) Baseline recordings in extracellular solution; 2) Application of the positive control N-methyl bicuculline (100 μM), which is characterized by full efficacy, fast on- and off-rate; 3-4) Wash-out; 5-9) Increasing concentrations of test compound to establish an IC50 value; 10-11) Wash-out; 12) positive control with compound NS8593 (N-[(1R)-1,2,3,4-tetrahydro-1-naphthalenyl]-1H-benzimidazol-2-amine) (1 μM). Data were sampled at 10 kHz, 4th order Bessel filter, cut-off frequency 3 kHz. Currents were compensated for run-down. Potency was quantified as the concentration needed to inhibit half of the SK channel activity and reported as an IC50 value. All effects of compounds of the present invention as tested were normalized to the observed inhibitory effect of N-methyl bicuculline.

| SMILES | IC50 |
| --- | --- |
| O=C(CC(Nc1nc2ccccc2[nH]1)c1cccc(C(F)(F)F)c1)NCCOC(F)(F)F (single isomer, unassigned) [Example 67a, 3-[(1H-1,3-benzodiazol-2-yl)amino]-N-[2-(trifluoromethoxy)ethyl]-3-[3-(trifluoromethyl)phenyl]propanamide] | < 10 µM |
| O=C(CC(Nc1nc2ccccc2[nH]1)c1cccc(C(F)(F)F)c1)NCCOCC(F)(F)F (single isomer, unassigned) [Example 68a, 3-[(1H-1,3-benzodiazol-2-yl)amino]-N-[2-(2,2,2-trifluoroethoxy)ethyl]-3-[3-(trifluoromethyl)phenyl]propanamide] | < 10 µM |
| COC[C@H](NC(=O)CC(Nc1nc2ccccc2[nH]1)c1cccc(C(F)(F)F)c1)c1ccccc1 (single isomer, unassigned) [Example 69a] | < 10 µM |
| COC[C@H](NC(=O)CC(Nc1nc2ccccc2[nH]1)c1cccc(SC(F)(F)F)c1)c1ccccc1 (single isomer, unassigned) [Example 70a] | < 10 µM |
| O=C(C(Nc1nc2ccccc2[nH]1)c1cccc(C(F)(F)F)c1)N1CCC1 (single isomer, unassigned; (+)) [Example 34a, (+)1-(azetidin-1-yl)-2-[(1H-1,3-benzodiazol-2-yl)amino]-2-[3-(trifluoromethyl)phenyl]ethan-1-one] | < 10 µM |
| CCN(CCO)C(=O)C(Nc1nc2ccccc2[nH]1)c1cccc(C(F)(F)F)c1 (single isomer, unassigned; (+)) [Example 38b, (+)2-[(1H-1,3-benzodiazol-2-yl)amino]-N-ethyl-N-(2-hydroxyethyl)-2-[3-(trifluoromethyl)phenyl]acetamide] | 10 to 100 µM |
| CCN(CCO)C(=O)CC(Nc1nc2ccccc2[nH]1)c1ccc(Cl)c(C)c1 (single isomer, unassigned; (+)) [Example 40b, (+)3-[(1H-1,3-benzodiazol-2-yl)amino]-3-(4-chloro-3-methylphenyl)-N-ethyl-N-(2-hydroxyethyl)propanamide] | 10 to 100 µM |
| CC(C)(O)CNC(=O)CC(Nc1nc2ccccc2[nH]1)c1cccc(C(F)(F)F)c1 (single isomer, unassigned; (-)) [Example 4a, (−) 3-[(1H-1,3-benzodiazol-2-yl)amino]-N-(2-hydroxy-2-methylpropyl)-3-[3-(trifluoromethyl)phenyl]propanamide] | 10 to 100 µM |
| CN(CCCO)C(=O)CC(Nc1nc2ccccc2[nH]1)c1cccc(C(F)(F)F)c1 (single isomer, unassigned; (-)) [Example 17a, (−) 3-[(1H-1,3-benzodiazol-2-yl)amino]-N-(3-hydroxypropyl)-N-methyl-3-[3-(trifluoromethyl)phenyl]propanamide] | < 10 µM |
| CN1CCN(C(=O)C(Nc2nc3ccccc3[nH]2)c2cccc(C(F)(F)F)c2)CC1 (single isomer, unassigned; (-)) [Example 27a, (−)2-[(1H-1,3-benzodiazol-2-yl)amino]-1-(4-methylpiperazin-1-yl)-2-[3-(trifluoromethyl)phenyl]ethan-1-one] | 10 to 100 µM |
| CCN(CCO)C(=O)C(Nc1nc2ccccc2[nH]1)c1cccc(C(F)(F)F)c1 (single isomer, unassigned; (-)) [Example 38a, (−)2-[(1H-1,3-benzodiazol-2-yl)amino]-N-ethyl-N-(2-hydroxyethyl)-2-[3-(trifluoromethyl)phenyl]acetamide] | < 10 µM |
| CCN(CCO)C(=O)CC(Nc1nc2ccccc2[nH]1)c1ccc(F)c(C)c1 (single isomer, unassigned; (-)) [Example 39a, (−)3-[(1H-1,3-benzodiazol-2-yl)amino]-N-ethyl-3-(4-fluoro-3-methylphenyl)-N-(2-hydroxyethyl)propanamide] | < 10 µM |
| CCN(CCO)C(=O)CC(Nc1nc2ccccc2[nH]1)c1ccc(Cl)c(C)c1 (single isomer, unassigned; (-)) [Example 40a, (−)3-[(1H-1,3-benzodiazol-2-yl)amino]-3-(4-chloro-3-methylphenyl)-N-ethyl-N-(2-hydroxyethyl)propanamide] | < 10 µM |
| CCN(CCO)C(=O)CC(Nc1nc2ccccc2[nH]1)c1cccc(C(F)(F)F)c1 (single isomer, unassigned; (-)) [Example 41a, (−)3-[(1H-1,3-benzodiazol-2-yl)amino]-N-ethyl-N-(2-hydroxyethyl)-3-[3-(trifluoromethyl)phenyl]propanamide] | < 10 µM |
| COCCNC(=O)CC(Nc1nc2ccccc2[nH]1)c1cccc(C(F)(F)F)c1 (single isomer, unassigned; (-)) [Example 42a, (−)3-[(1H-1,3-benzodiazol-2-yl)amino]-N-(2-methoxyethyl)-3-[3-(trifluoromethyl)phenyl]propanamide] | < 10 µM |
| CN(CC#N)C(=O)CC(Nc1nc2ccccc2[nH]1)c1cccc(C(F)(F)F)c1 (single isomer, unassigned; (-)) [Example 56a, (−)3-[(1H-1,3-benzodiazol-2-yl)amino]-N-(cyanomethyl)-N-methyl-3-[3-(trifluoromethyl)phenyl]propanamide] | < 10 µM |
| COC(=O)CN(C)C(=O)CC(Nc1nc2ccccc2[nH]1)c1cccc(C(F)(F)F)c1 (single isomer, unassigned; (-)) [Example 57a, (−)Methyl 2-{3-[(1H-1,3-benzodiazol-2-yl)amino]-N-methyl-3-[3-(trifluoromethyl)phenyl]propanamido}acetate] | < 10 µM |
| COC(=O)CNC(=O)CC(Nc1nc2ccccc2[nH]1)c1cccc(C(F)(F)F)c1 (single isomer, unassigned; (-)) [Example 59a, (−)Methyl 2-{3-[(1H-1,3-benzodiazol-2-yl)amino]-3-[3-(trifluoromethyl)phenyl]propanamido}acetate] | < 10 µM |
| CCc1cc(C(CC(=O)N(CC)CCO)Nc2nc3ccccc3[nH]2)ccc1F (single isomer, unassigned; (-)) [Example 65a, (−)3-[(1H-1,3-benzodiazol-2-yl)amino]-N-ethyl-3-(3-ethyl-4-fluorophenyl)-N-(2-hydroxyethyl)propanamide] | < 10 µM |
| CSCCNC(=O)CC(Nc1nc2ccccc2[nH]1)c1cccc(C(F)(F)F)c1 (stereo not drawn) [Example 1, 3-[(1H-1,3-benzodiazol-2-yl)amino]-N-[2-(methylsulfanyl)ethyl]-3-[3-(trifluoromethyl)phenyl]propanamide] | < 10 µM |
| CN(C)CCN(C)C(=O)CC(Nc1nc2ccccc2[nH]1)c1cccc(C(F)(F)F)c1 (stereo not drawn) [Example 2, 3-[(1H-1,3-benzodiazol-2-yl)amino]-N-[2-(dimethylamino)ethyl]-N-methyl-3-[3-(trifluoromethyl)phenyl]propanamide] | 10 to 100 µM |
| CCS(=O)(=O)NCCNC(=O)CC(Nc1nc2ccccc2[nH]1)c1cccc(C(F)(F)F)c1 (stereo not drawn) [Example 3, 3-[(1H-1,3-benzodiazol-2-yl)amino]-N-(2-ethanesulfonamidoethyl)-3-[3-(trifluoromethyl)phenyl]propanamide] | 10 to 100 µM |
| O=C(CC(Nc1nc2ccccc2[nH]1)c1cccc(C(F)(F)F)c1)N1CCC(O)CC1 (stereo not drawn) [Example 5, 3-[(1H-1,3-benzodiazol-2-yl)amino]-1-(4-hydroxypiperidin-1-yl)-3-[3-(trifluoromethyl)phenyl]propan-1-one] | 10 to 100 µM |
| O=C(CC(Nc1nc2ccccc2[nH]1)c1cccc(C(F)(F)F)c1)N1CC(O)C1 (stereo not drawn) [Example 6, 3-[(1H-1,3-benzodiazol-2-yl)amino]-1-(3-hydroxyazetidin-1-yl)-3-[3-(trifluoromethyl)phenyl]propan-1-one] | < 10 µM |
